According to patent US5387710A, “Ethanolamine derivatives having sympathomimetic and anti-pollakiuria activities” (Fujisawa Pharmaceutical Co., Ltd., priority 1992, dated 1995):
Structures can show the parent of a compound that is named as a salt.

Key:
[1] = tested on: isolated rat distal colon; assay: Effect on isolated rat distal colon (spontaneous contractions, organ bath); format: cell-based; settings: 0.5 h, isolated distal colon strip of male SD rats, Tyrode solution 37° C., observed over 30 minutes
Experimental: Effect on isolated rat distal colon:
Male SD rats (180~230 g) were used. Animals were fasted for 24 hours prior to experiment. Distal colon was removed immediately after sacrifice and placed in an organ bath containing 25 ml Tyrode solution aerating with 95% O2, 5% CO2 at 37° C. The strip was mounted under 0.5 g tension and spontaneous contractions were recorded isometrically. After the mobility was of a uniform size, test compound was added to an organ bath and the contractions were observed over a 30 minutes period. Effect of test compound was calculated by comparing contractions before and after test compound.

[2] = tested on: isolated non-pregnant rat uterus; assay: Effect on isolated non-pregnant rat uterus (spontaneous contractions, organ bath); format: cell-based; settings: 20 min, isolated uterine horn strip of estradiol-treated female SD rats, Locke solution 37° C., observed over 20 minutes
Experimental: Effect on isolated non-pregnant rat uterus:
Female SD rats (150~180 g) were used. 48 and 24 hours prior to use, rats were given estradiol (ovahormon benzoat: Trademark, Teikoku Hormone Mfg. Co., Ltd.) subcutaneously at a dose of 40 μg/rat to induce oestrus. The animals were killed and uterine horns were removed. Each strip was placed in an organ bath containing 25 ml Locke solution aerating with 95% O2, 5% CO2 at 37° C. under 1 g tension. Contractions were recorded isometrically. After the spontaneous contractions were of a uniform size, test compound was added to organ bath. The motility was observed over a 20 minutes period. Effect of test compound was calculated by comparing contractions before and after test compound.

CCOC(=O)COc1ccc2c(c1)CC(NC[C@H](O)c1cccc(Cl)c1)CCC2 (mixture of isomers) [Example 1, (1R,6'R)- and (1R,6'S)-2-[(3-ethoxycarbonyl-methoxy-6,7,8,9-tetrahydro-5H-benzocyclohepten-6-yl)amino]-1-(3-chlorophenyl)ethanol hydrochloride]
IC50 [1]: 0.00068 µM
IC50 [2]: 0.2 µM

CCOC(=O)COc1ccc2c(c1)C[C@@H](NC[C@H](O)c1cccc(Cl)c1)CCC2 [2-3), (1R,6'S)-2-[(3-Ethoxycarbonylmethoxy-6,7,8,9-tetrahydro-5H-benzocyclohepten-6-yl)amino]-1-(3-chlorophenyl)ethanol hydrochloride]
IC50 [1]: 0.00084 µM
IC50 [2]: 0.44 µM

CCOC(=O)COc1ccc2c(c1)C[C@H](NC[C@H](O)c1cccc(Cl)c1)CCC2 [3-2), (1R,6'R)-2-[(3-Ethoxycarbonylmethoxy-6,7,8,9-tetrahydro-5H-benzocyclohepten-6-yl)amino]-1-(3-chlorophenyl)ethanol]
IC50 [1]: 0.00066 µM
IC50 [2]: 0.24 µM
